We go through 2 compounds from US20150073050A1 (Amarin Pharmaceuticals Ireland Limited, priority 2013, published 2015).

This series in a line: Safety evaluation in the drug-drug interaction study (adverse events, clinical laboratory, vital signs, physical examination). The series is classed as in vivo, human. To be noted: omeprazole 40 mg with ethyl eicosapentaenoate 4 g/day, healthy subjects. From the text:
Safety evaluations consisted of monitoring adverse events (AEs), clinical laboratory measurements (chemistry, hematology, and urinalysis), vital signs (systolic and diastolic blood pressure, heart rate, respiratory rate and oral body temperature), and physical examination findings.

As to `COc1ccc2[nH]c([S+]([O-])Cc3ncc(C)c(OC)c3C)nc2c1` (stereo not drawn) [Omeprazole, omeprazole], the “Premature discontinuation due to an adverse event” value is “no subjects prematurely discontinued”; the “Safety and tolerability of concomitant administration” value is “safe and well-tolerated”; the Serious adverse events result is “No serious adverse events”.
In the case of `CC/C=C\C/C=C\C/C=C\C/C=C\C/C=C\CCCC(=O)OCC` [ethyl eicosapentaenoate, all-cis eicosa-5,8,11,14,17-pentaenoic acid ethyl ester], the “Premature discontinuation due to an adverse event” value is “no subjects prematurely discontinued”; the “Safety and tolerability of concomitant administration” value is “safe and well-tolerated”; the Serious adverse events result was “No serious adverse events”.
